Source: article PMC10313368 (The Journal of Clinical Investigation, 2023)
“And” between values parts separate entries of the source, which are not always exact repeats. Equal values may be shown once.

Assays:
[1] = test system: MIO-M1 cells; assay: qPCR of VEGF and ANGPTL4 mRNA in hypoxic MIO-M1 cells; assay type: cell-based, human; details: for Angptl4 mRNA / Vegfa mRNA: MIO-M1, 1%O2+32-134D 10μM, 20%O2 about 1, replicates, Figure 7H
Description: MIO-M1, HUVECs, and ARPE19 cells were cultured in DMEM with 10% (vol/vol) FBS (Quality Biological) and 1% penicillin/streptomycin (Cellgro). A hypoxic chamber (Coy Laboratory Product Inc.; Two Glove Model) with 5% CO2, 94% N2, and 1% O2 gas concentration at 37°C was used to culture hypoxic cells. The control cells were cultured in an incubator maintained at 37°C, with 21% O2 and 5% CO2. […] Aflibercept was obtained from the Johns Hopkins University Pharmacy. […]
Reverse transcription and quantitative real-time PCR. Total RNA was isolated from cultured cells or retinas with PureLinkTM RNA Mini Kit (Invitrogen #12183025), and cDNA was prepared with MuLV Reverse Transcriptase (Applied Biosystems). Quantitative real-time PCR was performed with Power SYBR Green PCR Master Mix (Applied Biosystems) and MyiQ Real-Time PCR Detection System (Bio-Rad). Normalization was done using cyclophilin A for mouse tissue and human cell lines. Primers are listed in Supplemental Table 2. […]

[2] = biological target: HIF-2α (Homo sapiens, UniProt Q99814); assay: Immunoblot of HIF-2α accumulation in MIO-M1 cells cultured in hypoxia; assay type: cell-based; design: endogenous in cells; host or cells: MIO-M1; details: MIO-M1, 1 μM 32-134D, 1% O2 4 hours
Sequence of HIF-2α (Q99814 whole entry): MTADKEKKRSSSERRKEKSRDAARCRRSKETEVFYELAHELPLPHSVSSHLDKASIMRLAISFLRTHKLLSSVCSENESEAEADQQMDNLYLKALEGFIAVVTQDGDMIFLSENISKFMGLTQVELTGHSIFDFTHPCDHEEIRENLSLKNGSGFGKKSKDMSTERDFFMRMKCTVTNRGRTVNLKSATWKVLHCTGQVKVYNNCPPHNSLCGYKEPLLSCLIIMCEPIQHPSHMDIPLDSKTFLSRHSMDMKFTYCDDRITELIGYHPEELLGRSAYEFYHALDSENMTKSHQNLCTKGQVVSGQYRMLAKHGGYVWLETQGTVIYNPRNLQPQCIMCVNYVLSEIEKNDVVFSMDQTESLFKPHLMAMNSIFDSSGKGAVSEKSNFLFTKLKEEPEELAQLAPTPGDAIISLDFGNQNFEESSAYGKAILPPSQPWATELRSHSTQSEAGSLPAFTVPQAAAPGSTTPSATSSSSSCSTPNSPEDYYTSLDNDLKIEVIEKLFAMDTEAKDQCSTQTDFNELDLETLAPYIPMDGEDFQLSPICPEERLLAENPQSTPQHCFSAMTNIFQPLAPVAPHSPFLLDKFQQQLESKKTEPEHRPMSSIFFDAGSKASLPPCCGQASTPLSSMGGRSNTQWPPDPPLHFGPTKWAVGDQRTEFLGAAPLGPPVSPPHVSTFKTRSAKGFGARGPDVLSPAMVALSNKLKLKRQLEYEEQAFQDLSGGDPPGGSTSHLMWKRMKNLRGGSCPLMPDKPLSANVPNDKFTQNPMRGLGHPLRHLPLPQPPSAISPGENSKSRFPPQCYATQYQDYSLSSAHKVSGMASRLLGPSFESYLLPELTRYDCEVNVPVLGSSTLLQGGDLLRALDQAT
Description: MIO-M1, HUVECs, and ARPE19 cells were cultured in DMEM with 10% (vol/vol) FBS (Quality Biological) and 1% penicillin/streptomycin (Cellgro). A hypoxic chamber (Coy Laboratory Product Inc.; Two Glove Model) with 5% CO2, 94% N2, and 1% O2 gas concentration at 37°C was used to culture hypoxic cells. The control cells were cultured in an incubator maintained at 37°C, with 21% O2 and 5% CO2. […] Aflibercept was obtained from the Johns Hopkins University Pharmacy.
Immunoblot assays. Cells, neurosensory retina, and D120 retinal organoid lysates were subjected
to 4–15% gradient SDS/PAGE (Invitrogen). Immunoblot (Western blot or WB) assays were
performed as previously described (1). […]

[3] = biological target: T1, HIF-1α (Mus musculus, UniProt Q61221); assay: Western blot of HIF-1α protein accumulation in retina of OIR mice (P13); assay type: in vivo
T1 construct: from tissue; host or cells: retina of C57BL/6 OIR pups
T1 sequence (Q61221 whole entry): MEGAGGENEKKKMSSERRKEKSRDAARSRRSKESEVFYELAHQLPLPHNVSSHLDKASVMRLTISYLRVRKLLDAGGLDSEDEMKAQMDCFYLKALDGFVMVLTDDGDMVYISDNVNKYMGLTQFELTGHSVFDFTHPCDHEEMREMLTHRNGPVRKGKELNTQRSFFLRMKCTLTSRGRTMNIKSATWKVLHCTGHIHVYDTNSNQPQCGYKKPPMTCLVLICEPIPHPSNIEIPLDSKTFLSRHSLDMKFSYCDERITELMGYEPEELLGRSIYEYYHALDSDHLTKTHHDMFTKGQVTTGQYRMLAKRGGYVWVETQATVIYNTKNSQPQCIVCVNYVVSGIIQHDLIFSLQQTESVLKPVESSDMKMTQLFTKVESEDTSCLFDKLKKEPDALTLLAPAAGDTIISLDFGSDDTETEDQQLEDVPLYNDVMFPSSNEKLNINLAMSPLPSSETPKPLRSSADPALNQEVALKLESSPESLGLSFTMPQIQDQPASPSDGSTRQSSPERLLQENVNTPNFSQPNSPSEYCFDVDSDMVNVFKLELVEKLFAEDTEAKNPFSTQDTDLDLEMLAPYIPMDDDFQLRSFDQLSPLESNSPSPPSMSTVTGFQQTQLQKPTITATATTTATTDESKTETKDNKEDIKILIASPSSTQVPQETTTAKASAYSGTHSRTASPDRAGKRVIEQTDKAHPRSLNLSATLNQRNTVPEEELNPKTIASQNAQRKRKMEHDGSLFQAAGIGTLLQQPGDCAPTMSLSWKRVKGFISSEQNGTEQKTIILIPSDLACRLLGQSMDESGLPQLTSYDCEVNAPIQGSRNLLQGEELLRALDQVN
Description: Immunoblot assays. Cells, neurosensory retina, and D120 retinal organoid lysates were subjected to 4–15% gradient SDS/PAGE (Invitrogen). Immunoblot (Western blot or WB) assays were performed as previously described (1).
Reverse transcription and quantitative real-time PCR. Total RNA was isolated from cultured cells or retinas with PureLinkTM RNA Mini Kit (Invitrogen #12183025), and cDNA was prepared with MuLV Reverse Transcriptase (Applied Biosystems). Quantitative real-time PCR was performed with Power SYBR Green PCR Master Mix (Applied Biosystems) and MyiQ Real-Time PCR Detection System (Bio-Rad). Normalization was done using cyclophilin A for mouse tissue and human cell lines. Primers are listed in Supplemental Table 2.
Angiogenesis array. […]
cDNA was prepared with QuantiTect® Reverse Transcription Kit (Qiagen, Cat# 205311). […]
4444554). […] The data were analyzed by using HPRT1 as endogenous […]
HUVEC cells, Euclidean distance was used to quantify the difference in qPCR screening. The Euclidean distance was calculated using “dist” function from R’s default stat library that measures the distance between 2 vectors (i.e., total qPCR expression values in control and treatment). […]
STZ-induced diabetes mouse model. […] Blood glucose was measured on experimental day 28 after 16 hours fasting and mice with blood glucose level > 250 mg/dL were considered […]

SMILES: Brc1ccc2c(-c3csc(-c4c[nH]c5c(Br)cccc45)n3)c[nH]c2c1 [32-134D, 4-(6-bromo-1H-indol-3-yl)-2-(7-bromo-1H-indol-3-yl)thiazole]
- logIC50 ([1]; Figure 12B, [Inhibitor] vs. response (three parameters), best-fit value): 0.5455
- Angptl4 mRNA ([1]; 2hrs): 0.3563 and 0.4262 and 0.3782
- Vegfa mRNA ([1]; 2hrs): 1.026 and 1.073 and 1.079
- Angptl4 mRNA ([1]; 4hrs): 1.791 and 1.687 and 2.018
- Vegfa mRNA ([1]; 4hrs): 1.517 and 1.493 and 1.343
- Angptl4 mRNA ([1]; 8hrs): 1.385 and 1.132 and 0.993
- Vegfa mRNA ([1]; 8hrs): 2.421 and 2.295 and 2.311
- HIF-2α protein accumulation in response to hypoxia [2]: decreased
- HIF-1α protein accumulation in OIR mice ([3]; single i.p. injection 20 mg/kg, P13): reduction
- accumulation of HIF-1α in OIR mice ([3]; single intraocular injection 14 ng at P12, P13): effectively reduced
